ChEMBL document CHEMBL1157700, “Synthesis of 3-[(N-carboalkoxy)ethylamino]-indazole-dione derivatives and their biological activities on human liver carbonyl reductase” (Bioorg Med Chem, 2010)

Tested on: A549
Assay: Potentiation of daunorubicin-induced cytotoxicity against human A549 cells
Assay type: functional

CNc1ncnc2c1c(-c1cccc(O)c1)cn2C(C)C
Activity: 25%
